Results: patent publication US11976061B2, “Preparation of benzimidazolone derivatives as novel diacylglyceride O-acyltransferase 2 inhibitors” (Merck Sharp & Dohme LLC, priority 2020, dated 2024)

target: T1, human DGAT2 (hDGAT2) (Homo sapiens, UniProt Q96PD7); experiment: DGAT2 Enzymatic Activity Assay; format: biochemical; conditions: membrane prep of Sf-9 cells expressing hDGAT2; 25 μM diolein, 5 μM 13C oleoyl-CoA; 13C18-triolein by LC/MS/MS; read-out: DGAT2 IC50
T1 construct: made in house; host or cells: Sf-9 insect cells (baculovirus), membrane fraction
T1 sequence (Q96PD7 1-388): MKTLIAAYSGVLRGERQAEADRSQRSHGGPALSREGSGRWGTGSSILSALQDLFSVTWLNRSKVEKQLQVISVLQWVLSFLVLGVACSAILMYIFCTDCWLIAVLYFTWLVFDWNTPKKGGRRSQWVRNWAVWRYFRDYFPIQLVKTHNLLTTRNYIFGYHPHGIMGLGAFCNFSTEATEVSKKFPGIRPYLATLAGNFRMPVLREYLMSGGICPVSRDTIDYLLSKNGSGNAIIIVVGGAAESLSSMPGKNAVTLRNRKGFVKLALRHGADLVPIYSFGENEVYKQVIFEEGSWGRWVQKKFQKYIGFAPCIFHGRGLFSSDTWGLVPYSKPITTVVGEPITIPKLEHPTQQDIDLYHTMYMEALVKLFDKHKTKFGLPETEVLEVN
Method in brief: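 Membranes from Sf-9 cells expressing untagged human DGAT2 (8 ng/μL) incubated at rt in 100 mM Tris·Cl pH 7.0, 20 mM MgCl2, 5% ethanol with 25 μM diolein and 5 μM 13C oleoyl-CoA. 13C18-triolein product quantified by LC/MS/MS against 13C21-triolein internal standard; IC50 by 4-parameter fit.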

| IC50 [µM] | SMILES |
| --- | --- |
| > 10 | CC(=O)Nc1ccc(-n2c(=O)n(C(C)C)c3cc(C(=O)NC4(C)CS(=O)(=O)C4)ccc32)cc1O [Example 47, 1-(4-acetamido-3-hydroxyphenyl)-3-isopropyl-N-(3-methyl-1,1-dioxidothietan-3-yl)-2-oxo-2,3-dihydro-1H-benzo[d]imidazole-5-carboxamide] |
| > 10 | Cc1nc2c(-n3c(=O)n(C(C)C)c4cc(C(=O)NC5(C)CS(=O)(=O)C5)ccc43)cccc2o1 [Example 48, 3-isopropyl-N-(3-methyl-1,1-dioxidothietan-3-yl)-1-(2-methylbenzo[d]oxazol-4-yl)-2-oxo-2,3-dihydro-1H-benzo[d]imidazole-5-carboxamide] |
| > 10 | Cc1nc2ccc(-n3c(=O)n(C(C)C)c4cc(C(=O)NC5(C)CS(=O)(=O)C5)ccc43)cc2o1 [Example 49, 3-isopropyl-N-(3-methyl-1,1-dioxidothietan-3-yl)-1-(2-methylbenzo[d]oxazol-6-yl)-2-oxo-2,3-dihydro-1H-benzo[d]imidazole-5-carboxamide] |
| > 9.99 | CC(C)n1c(=O)n(-c2cccc(F)c2)c2ccc(C(=O)NC3(C)CCS(=O)(=O)CC3)cc21 [Example 50, 1-(3-fluorophenyl)-3-isopropyl-N-(4-methyl-1,1-dioxidotetrahydro-2H-thiopyran-4-yl)-2-oxo-2,3-dihydro-1H-benzo[d]imidazole-5-carboxamide] |
| 0.251 | CC(C)Oc1cc(-n2c(=O)n(C(C)C)c3cc(C(=O)NC4(C)CCS(=O)(=O)CC4)ccc32)c(F)cn1 [Example 51, 1-(5-fluoro-2-isopropoxypyridin-4-yl)-3-isopropyl-N-(4-methyl-1,1-dioxidotetrahydro-2H-thiopyran-4-yl)-2-oxo-2,3-dihydro-1H-benzo[d]imidazole-5-carboxamide] |
| > 9.99 | CC(C)n1c(=O)n(-c2cccc(C#N)c2)c2ccc(C(=O)NC3(C)CCS(=O)(=O)CC3)cc21 [Example 52, 1-(3-cyanophenyl)-3-isopropyl-N-(4-methyl-1,1-dioxidotetrahydro-2H-thiopyran-4-yl)-2-oxo-2,3-dihydro-1H-benzo[d]imidazole-5-carboxamide] |
| 1.83 | CC(C)n1c(=O)n(-c2cccc(C(F)(F)F)c2)c2ccc(C(=O)NC3(C)CCS(=O)(=O)CC3)cc21 [Example 53, 3-isopropyl-N-(4-methyl-1,1-dioxidotetrahydro-2H-thiopyran-4-yl)-2-oxo-1-(3-(trifluoromethyl)phenyl)-2,3-dihydro-1H-benzo[d]imidazole-5-carboxamide] |
| 1.32 | CC(C)n1c(=O)n(-c2cccc(N(C)C)c2)c2ccc(C(=O)NC3(C)CCS(=O)(=O)CC3)cc21 [Example 54, 1-(3-(dimethylamino)phenyl)-3-isopropyl-N-(4-methyl-1,1-dioxidotetrahydro-2H-thiopyran-4-yl)-2-oxo-2,3-dihydro-1H-benzo[d]imidazole-5-carboxamide] |
| > 9.99 | CC(C)n1c(=O)n(-c2cccc(C(N)=O)c2)c2ccc(C(=O)NC3(C)CCS(=O)(=O)CC3)cc21 [Example 55, 1-(3-carbamoylphenyl)-3-isopropyl-N-(4-methyl-1,1-dioxidotetrahydro-2H-thiopyran-4-yl)-2-oxo-2,3-dihydro-1H-benzo[d]imidazole-5-carboxamide] |
| 0.367 | CSc1cccc(-n2c(=O)n(C(C)C)c3cc(C(=O)NC4(C)CCS(=O)(=O)CC4)ccc32)c1 [Example 56, 3-isopropyl-N-(4-methyl-1,1-dioxidotetrahydro-2H-thiopyran-4-yl)-1-(3-(methylthio)phenyl)-2-oxo-2,3-dihydro-1H-benzo[d]imidazole-5-carboxamide] |
| > 9.99 | CNS(=O)(=O)c1cccc(-n2c(=O)n(C(C)C)c3cc(C(=O)NC4(C)CCS(=O)(=O)CC4)ccc32)c1 [Example 57, 3-isopropyl-N-(4-methyl-1,1-dioxidotetrahydro-2H-thiopyran-4-yl)-1-(3-(N-methylsulfamoyl)phenyl)-2-oxo-2,3-dihydro-1H-benzo[d]imidazole-5-carboxamide] |
| > 9.99 | CC(C)n1c(=O)n(-c2cccc(S(C)(=O)=O)c2)c2ccc(C(=O)NC3(C)CCS(=O)(=O)CC3)cc21 [Example 58, 3-isopropyl-N-(4-methyl-1,1-dioxidotetrahydro-2H-thiopyran-4-yl)-1-(3-(methylsulfonyl)phenyl)-2-oxo-2,3-dihydro-1H-benzo[d]imidazole-5-carboxamide] |
| 0.038 | CC1(NC(=O)c2ccc3c(c2)n(Cc2ccc(F)cc2)c(=O)n3-c2cccc(OC(F)F)c2)CCS(=O)(=O)CC1 [Example 59, 1-(3-(difluoromethoxy)phenyl)-3-(4-fluorobenzyl)-N-(4-methyl-1,1-dioxidotetrahydro-2H-thiopyran-4-yl)-2-oxo-2,3-dihydro-1H-benzo[d]imidazole-5-carboxamide] |
| 1.09 | Cn1c(=O)n(-c2cccc(OC(F)F)c2)c2ccc(C(=O)NC3(C)CS(=O)(=O)C3)cc21 [Example 60, 1-(3-(difluoromethoxy)phenyl)-3-methyl-N-(3-methyl-1,1-dioxidothietan-3-yl)-2-oxo-2,3-dihydro-1H-benzo[d]imidazole-5-carboxamide] |
| > 9.99 | Cc1nnc(NC(=O)c2ccc3c(c2)n(C(C)C)c(=O)n3-c2cccc(OC(F)F)c2)s1 [Example 61, 1-(3-(difluoromethoxy)phenyl)-3-isopropyl-N-(5-methyl-1,3,4-thiadiazol-2-yl)-2-oxo-2,3-dihydro-1H-benzo[d]imidazole-5-carboxamide] |
| > 9.99 | CCn1cc(CNC(=O)c2ccc3c(c2)n(C(C)C)c(=O)n3-c2cccc(OC(F)F)c2)cn1 [Example 63, 1-(3-(difluoromethoxy)phenyl)-N-((1-ethyl-1H-pyrazol-4-yl)methyl)-3-isopropyl-2-oxo-2,3-dihydro-1H-benzo[d]imidazole-5-carboxamide] |

same assay, conditions: membrane prep of Sf-9 cells expressing hDGAT2; 25 μM diolein, 5 μM 13C oleoyl-CoA; 13C18-triolein by LC/MS/MS; read-out: Human DGAT2 IC50

| IC50 [µM] | SMILES |
| --- | --- |
| 0.0356 | CC(C)(O)Cn1c(=O)n(-c2cccc(OC(F)F)c2)c2ccc(C(=O)NC3(C)CS(=O)(=O)C3)cc21 [Example 64, 1-(3-(difluoromethoxy)phenyl)-3-(2-hydroxy-2-methylpropyl)-N-(3-methyl-1,1-dioxidothietan-3-yl)-2-oxo-2,3-dihydro-1H-benzo[d]imidazole-5-carboxamide] |
| 0.0021 | CC(C)n1c(=O)n(-c2cc(OC(F)F)ccc2F)c2ccc(C(=O)NC3(C)CCS(=O)(=O)CC3)cc21 [Example 79, 1-(5-(Difluoromethoxy)-2-fluorophenyl)-3-isopropyl-N-(4-methyl-1,1-dioxidotetrahydro-2H-thiopyran-4-yl)-2-oxo-2,3-dihydro-1H-benzo[d]imidazole-5-carboxamide] |
| 0.0077 | CC(C)n1c(=O)n(-c2cc(OC(F)F)ccc2F)c2ccc(C(=O)NC3(C)CS(=O)(=O)C3)cc21 [Example 80, 1-(5-(Difluoromethoxy)-2-fluorophenyl)-3-isopropyl-N-(3-methyl-1,1-dioxidothietan-3-yl)-2-oxo-2,3-dihydro-1H-benzo[d]imidazole-5-carboxamide] |
| 0.0063 | CC(C)n1c(=O)n(-c2cc(OC(F)F)ccc2F)c2ccc(C(=O)N[C@@]3(C)CCS(=O)(=O)C3)cc21 [Example 81, (S)-1-(5-(Difluoromethoxy)-2-fluorophenyl)-3-isopropyl-N-(3-methyl-1,1-dioxidotetrahydrothiophen-3-yl)-2-oxo-2,3-dihydro-1H-benzo[d]imidazole-5-carboxamide] |
